Experimental data as given in US20170202792A1, “METHOD FOR TREATING TAU-ASSOCIATED DISEASES” (NATIONAL TAIWAN NORMAL UNIVERSITY, priority 2016, published 2017).

Assays:
Aβ40, Aβ42 = experiment: Immunohistochemical staining of Aβ in brain tissue; format: in vivo, mouse; settings: 0.25 mg/kg i.p. daily 28 days
Procedure: Hyperglycemia was induced by streptozotocin (STZ) to accelerated Alzheimer's disease progression of 6-month-old male transgenic 3×Tg−AD mice. Half of the 3×Tg−AD mice (n=30) received STZ (100 mg/kg) intraperitoneal injection at days 1, 2, 8, and 9 respectively as the high blood glucose group (HBG); another half of the 3×Tg-AD mice (n=30) received sodium citrate (0.1 M) at the same time points as the normal blood glucose group (NBG). Then, HBG and NBG were divided into two groups respectively to give four groups such as NBG-compound (I), HBG-compound (I), NBG-DMSO, and HBG-DMSO with n=15 in each group; wherein 0.25 mg/kg of compound (I) (in 30 μL) were intraperitoneal injected into those mice of NBG-compound (I) and HBG-compound (I) groups daily since day 14 for 28 days, and 30 μL of DMSO solvent were intraperitoneal injected into those mice of NBG-DMSO and HBG-DMSO groups daily since day 14 for 28 days. Both mouse body weight (BW) and blood glucose (BG) were monitored every week.
After the brain tissue of the mice was fixed and dehydrated, the tissue was cryosectioned (30 μm). The cryosections were then washed with phosphate buffered saline (PBS) for three times. After the optimal cutting temperature compound (OCT) was removed, 3% H2O2 was used to remove the endogenous peroxidase, and the cryosections were blocked by the blocking solution for 1 hour to reduce the non-specific antigen reactions. The primary antibodies (Aβ40, Aβ42) were added and reacted for 12 hours, the secondary antibody (1:200 dilution in blocking solution, Vecter) was added and reacted for 1 hour, and then, the avidin-biotin complex was added and reacted for 1 hour. Finally, DAB-kit was used for coloring. All the stained sections were attached to the slides, dried, dehydrated, and mounted for imaging and quantification (Image Pro Plus). The quantification results were shown in Table 1, wherein ↑, ↓:p<0.05; ↑↑, ↓↓:p<0.01.

GSK-3β = experiment: Western blot of mouse hippocampal tissue, GSK-3β; format: in vivo; settings: hyperglycemic 3×Tg-AD mice; 0.25 mg/kg i.p. daily
Procedure: (§1) Hyperglycemia was induced by streptozotocin (STZ) to accelerated Alzheimer's disease progression of 6-month-old male transgenic 3×Tg−AD mice. Half of the 3×Tg−AD mice (n=30) received STZ (100 mg/kg) intraperitoneal injection at days 1, 2, 8, and 9 respectively as the high blood glucose group (HBG); another half of the 3×Tg-AD mice (n=30) received sodium citrate (0.1 M) at the same time points as the normal blood glucose group (NBG). […] Both mouse body weight (BW) and blood glucose (BG) were monitored every week.
(§2) Mice were sacrificed after MWM and hippocampi were isolated for analyzing several protein expression levels by means of western blot. The protein of the hippocampi was quantified by BCA assay (Pierce), wherein 25 μg of protein was separated by SDS-PAGE and then transferred to PVDF film. Next, protein was blocked for reducing non-specific signals, and reacted with primary antibodies (GSK-3β, pS9-GSK-3β (non-activated), pT216-GSK-3β(activated), pS202Tau, pS396Tau, pT231Tau, HT7 (total Tau)), and secondary antibodies (anti-rabbit, anti-mouse IgG HRP-linked antibody; 1:10,000; Amersham Pharmacia Biotech). β-actin was used as the loading control, ECL kit was used to detect the antigen-antibody complex, and LAS-4000 (Fujifilm) was used for imaging and quantification.

[1] = system: phosphorylated tau protein; experiment: Western blot of mouse hippocampal tissue, phosphorylated tau; format: in vivo; settings: hyperglycemic 3×Tg-AD mice; 0.25 mg/kg i.p. daily vs DMSO
Procedure: as §1, §2

[2] = system: SH-SY5Y tauRD-DsRed cells; experiment: Neurite outgrowth in SH-SY5Y tauRD-DsRed cells (TUBB3 staining); format: cell-based, human; settings: 10 μM, pre-treated 8 hours, doxycycline 7 days; untreated = 100%
Procedure: We used SH-SY5Y human cells expressing a DsRed-tagged proaggregation mutant (ΔK280) of the C-terminal repeat domain of tau (tauRD-Gln^244-Glu^372 of the longest tau^441 isoform). The recombinant tauRD-DsRed construct was under the control of a tetracycline-regulated, hybrid human cytomegalovirus (CMV)/TetO2 promoter that can be induced by adding doxycycline. The cell lines were grown in medium containing blasticidin (5 μg/mL) and hygromycin (100 μg/mL).
SH-SY5Y tauRD-DsRed cells were seeded in 6-well plates (1×10^5/well) in a medium containing all-trans retinoic acid (10 μM, Sigma). After 48 hours of incubation, cells were pre-treated with 10 μM Congo red and 10 μM compound (I) for 8 hours; after which, tauRD-DsRed expression was induced with 1μg/mL doxycycline for 7 days. The cells were then fixed in 4% paraformaldehyde, permeabilized with 0.1% Triton X-100, blocked in 3% BSA, and then stained with the primary antibody anti-TUBB3 (against neuronal Class III β-tubulin) (1:1000; Covance) and with a secondary anti-rabbit Alexa Fluor® 555 antibody (1:500; Molecular Probes). Nuclei were counterstained with 4′,6-diamidino-2-phenylindole (DAPI). The total outgrowth in the untreated, Congo red-treated, and compound (I)-treated cells was assessed using MetaXpress image acquisition and analysis software.

IL-6 and TNF-α = experiment: Content analysis of IL-6 and TNF-α in serum (ELISA); format: in vivo, mouse; settings: both normal and high blood glucose groups; 0.25 mg/kg i.p. daily
Procedure: as §1
Additionally, the peripheral inflammatory cytokine in four groups of mice were evaluated. The collected blood was centrifuged (2000×g) for 20 minutes at 4° C., and the supernatant was analyzed using mouse TNF-α ELISA kit and IL-6 ELISA kit (R&D system). OD450 nm absorbance was detected by ELISA reader, and the concentration of IL-6 and of TNF-α were obtained by interpolating the standard curve and shown in FIG. 11, wherein *p<0.05. […]

[3] = HBG (high blood glucose, STZ) 3×Tg-AD mice
[4] = NBG (normal blood glucose) 3×Tg-AD mice

## CCCCC/C=C\C/C=C\C/C=C\C/C=C\CCCC(=O)Nc1ccc(O)cc1 [compound (I), (5Z, 8Z, 11Z,14Z)-N-(4-Hydroxyphenyl)icosa-5 ,8 , 11,14-tetraen amide]
Aβ40, Aβ42; [3]
  Aβ40 staining quantification: 164.78 ± 9.51↓↓
  Aβ42 staining quantification: 26.91 ± 1.28↓
Aβ40, Aβ42; [4]
  Aβ40 staining quantification: 181.88 ± 4.17
  Aβ42 staining quantification: 29.13 ± 0.64
GSK-3β
  GSK-3β inhibition in hippocampus (pT216-GSK-3β/GSK-3β, pS9-GSK-3β/GSK-3β): exerts inhibition for GSK-3β
[1]
  expression level of phosphorylated tau protein in hippocampus: lower than that of the mice administrated with DMSO
[2]
  neurite growth relative to untreated cells: 140%
IL-6 and TNF-α
  IL-6 level in serum: down-regulated
  TNF-α level in serum: down-regulated
